In ChEMBL document CHEMBL3880416, “Inhibitors of AKT Activity” (2011):

Columns and labels:
[1] = molecular target: RAC-alpha serine/threonine-protein kinase (Homo sapiens, UniProt P31749); test: Inhibition of full length human AKT1 expressed in Sf9 cells assessed as reduction in substrate phosphorylation using biotin-ahx-ARKRERAYSFGHHA-amide substrate and [gamma-33P]ATP incubated for 40 mins by top count microplate scintillation counting method
[2] = molecular target: RAC-gamma serine/threonine-protein kinase (Homo sapiens, UniProt Q9Y243); test: Inhibition of full length human AKT3 expressed in Sf9 cells assessed as reduction in substrate phosphorylation using biotin-ahx-ARKRERAYSFGHHA-amide substrate and [gamma-33P]ATP incubated for 40 mins by top count microplate scintillation counting method
Chain of RAC-gamma serine/threonine-protein kinase (Q9Y243 whole entry): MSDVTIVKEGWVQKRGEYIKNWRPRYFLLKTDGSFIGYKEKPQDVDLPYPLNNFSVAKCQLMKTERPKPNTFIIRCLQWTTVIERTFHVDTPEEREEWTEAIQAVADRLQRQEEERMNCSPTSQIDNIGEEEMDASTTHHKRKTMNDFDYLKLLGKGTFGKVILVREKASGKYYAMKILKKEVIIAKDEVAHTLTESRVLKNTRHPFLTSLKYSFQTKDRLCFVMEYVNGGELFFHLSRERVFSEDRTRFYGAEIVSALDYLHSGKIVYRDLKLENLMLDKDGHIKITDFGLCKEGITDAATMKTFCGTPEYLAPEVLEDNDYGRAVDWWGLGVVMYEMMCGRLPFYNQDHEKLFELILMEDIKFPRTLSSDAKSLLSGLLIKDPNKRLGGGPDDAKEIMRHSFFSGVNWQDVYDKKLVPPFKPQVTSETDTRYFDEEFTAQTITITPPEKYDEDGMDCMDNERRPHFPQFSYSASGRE

Chain of RAC-alpha serine/threonine-protein kinase (P31749 whole entry): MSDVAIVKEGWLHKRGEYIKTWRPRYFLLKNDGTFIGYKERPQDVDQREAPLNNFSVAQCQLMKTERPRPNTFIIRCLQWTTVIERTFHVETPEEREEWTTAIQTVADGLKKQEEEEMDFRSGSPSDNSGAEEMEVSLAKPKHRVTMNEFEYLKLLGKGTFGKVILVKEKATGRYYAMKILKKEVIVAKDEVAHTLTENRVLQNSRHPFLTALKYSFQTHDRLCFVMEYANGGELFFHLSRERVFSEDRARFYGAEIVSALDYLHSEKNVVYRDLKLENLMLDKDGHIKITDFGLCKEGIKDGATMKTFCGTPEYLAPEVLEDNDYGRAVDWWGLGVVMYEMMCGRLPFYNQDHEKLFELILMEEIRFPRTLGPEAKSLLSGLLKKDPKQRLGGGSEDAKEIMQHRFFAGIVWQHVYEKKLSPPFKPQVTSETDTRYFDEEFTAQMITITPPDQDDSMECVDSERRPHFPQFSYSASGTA

IC50 [1] [nM] | IC50 [2] [nM] | Compound
≤ 2.51 | – | Cn1ncc(Br)c1-c1cc(C(=O)N[C@H](CN)Cc2ccccc2C(F)(F)F)sc1Cl
≤ 2.51 | – | Cn1ncc(Cl)c1-c1cc(C(=O)N[C@H](CN)Cc2ccccc2C(F)(F)F)sc1Cl
≤ 2.51 | – | CCn1ncc(Cl)c1-c1cc(C(=O)N[C@H](CN)Cc2ccc(F)c(F)c2)oc1Cl
≤ 2.51 | – | Cn1ncc(Cl)c1-c1cc(C(=O)N[C@H](CN)Cc2ccccc2C(F)(F)F)oc1Cl
≤ 2.51 | – | Cn1ncc(Br)c1-c1cc(C(=O)N[C@H](CN)Cc2ccc(F)cc2)sc1Cl
≤ 2.51 | – | CCc1sc(C(=O)N[C@H](CN)Cc2cccc(F)c2)cc1-c1c(Cl)cnn1C
≤ 2.51 | – | Cn1ncc(Br)c1-c1cc(C(=O)N[C@H](CN)Cc2cccc(C(F)(F)F)c2)sc1Cl
≤ 2.51 | – | Cn1ncc(Br)c1-c1cc(C(=O)N[C@H](CN)Cc2cccc(F)c2)sc1Cl
≤ 2.51 | – | Cn1nccc1-c1cc(C(=O)N[C@H](CN)Cc2ccc(F)c(F)c2)oc1Cl
≤ 2.51 | – | CCn1ncc(Cl)c1-c1cc(C(=O)N[C@H](CN)Cc2ccc(F)cc2)sc1Cl
≤ 2.51 | – | Cc1cnn(C)c1-c1cc(C(=O)N[C@H](CN)Cc2cccc(F)c2)sc1Cl
≤ 2.51 | – | Cn1nccc1-c1cc(C(=O)N[C@H](CN)Cc2cccc(F)c2)sc1Cl
≤ 2.51 | – | Cc1cnn(C)c1-c1cc(C(=O)N[C@H](CN)Cc2ccccc2C(F)(F)F)sc1Cl
1.58 to 2.51 | 3.16 to 25.1 | Cn1ncc(Cl)c1-c1cc(C(=O)N[C@H](CN)Cc2ccc(F)c(F)c2)sc1Cl
≤ 2.51 | – | COc1sc(C(=O)N[C@H](CN)Cc2cccc(F)c2)cc1-c1c(Cl)cnn1C
≤ 2.51 | – | Cc1cnn(C)c1-c1cc(C(=O)N[C@H](CN)Cc2cccc(F)c2)oc1Cl
≤ 2.51 | – | CCn1ncc(Cl)c1-c1cc(C(=O)N[C@H](CN)Cc2ccc(F)c(F)c2)sc1Cl
